According to US11512053B2, “Arginine methyltransferase inhibitors and uses thereof” (priority 2013, dated 2022):
Read-outs that look alike come from different tables or passages of the source.

Columns and labels:
[1] = target: full-length human PRMT8 isoform 1 (Homo sapiens, UniProt Q9NR22); assay: PRMT8 Biochemical Assay (3H-SAM Flashplate, peptide substrate); conditions: read-out: Biochemical IC50 PRMT8
Method in brief: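 Full-length human PRMT8 (1.5 nM, E. coli-expressed, GST removed) preincubated 30 min at room temperature with compound, then reacted with 50 nM 3H-SAM plus 550 nM cold SAM and 150 nM biotinylated H4 31-45 peptide in 20 mM Bicine pH 7.6, 1 mM TCEP, 0.005% BSG, 0.002% Tween 20, 2% DMSO. Quenched with 400 uM cold SAM; labelled peptide captured on streptavidin Flashplate, % inhibition versus 1 mM SAH and DMSO controls fitted to 4- or 3-parameter curve.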

[2] = system: mono-methyl arginine in RKO cells; assay: RKO Methylation Assay, In Cell Western (ICW) for detection of mono-methyl arginine and DNA content; format: cell-based; conditions: Homo sapiens, RKO, 72 h, RKO cells, read-out: In Cell Western EC30
Method in brief: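 RKO cells were treated with compound for 72 hours at 37 °C, methanol-fixed and stained overnight at 4 °C with anti-mono-methyl arginine (1:200), with DRAQ5 for DNA. Odyssey 800/700 nm intensity ratio was normalized to DMSO and 20 μM reference-compound controls. EC30 from triplicate nine-point curves.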

[3] = single experiment or average of multiple experiments
[4] = 72 hours compound incubation, mono-methyl arginine signal normalised to DNA content (DRAQ5), percent activation vs 20 μM reference compound
[5] = 72 hours incubation, mono-methyl arginine signal normalised to DNA content, single experiment or average of multiple experiments

full-length human PRMT8 isoform 1, sequence (Q9NR22 whole entry, canonical isoform): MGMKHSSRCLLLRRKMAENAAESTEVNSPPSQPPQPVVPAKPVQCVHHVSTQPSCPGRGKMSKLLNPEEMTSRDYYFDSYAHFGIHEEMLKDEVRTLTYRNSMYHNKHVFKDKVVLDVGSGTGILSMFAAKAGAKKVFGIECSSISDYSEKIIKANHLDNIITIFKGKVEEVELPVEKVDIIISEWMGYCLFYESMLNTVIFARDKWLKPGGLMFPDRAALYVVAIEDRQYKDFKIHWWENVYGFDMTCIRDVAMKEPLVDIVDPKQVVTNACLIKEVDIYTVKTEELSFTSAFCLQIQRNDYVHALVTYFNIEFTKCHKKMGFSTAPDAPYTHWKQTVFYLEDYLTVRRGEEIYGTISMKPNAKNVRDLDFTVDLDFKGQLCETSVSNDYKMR

Structure (SMILES)	IC50 [1] [nM]	IC50 [1, 3] [nM]	EC30 [2, 4] [nM]	EC30 [2, 5] [nM]
CNCCN(C)Cc1c[nH]nc1C1CCC(=O)N(Cc2ccccc2)C1 (centres unmarked) [Compound 115]	101 to 1000	196	< 3000	18.9
CCOC1CC(OCC)CC(c2n[nH]cc2CN(C)CCNC)C1 (centres unmarked) [Compound 132]	3010 to 10000	4330		3.8
CNCCN(C)Cc1c[nH]nc1C1CCC2(CC1)C(=O)NC(=O)N2C (centres unmarked) [Compound 161]	< 100	37.4	3010 to 12000	5020
CCOCC1CC(COCC)CC(c2n[nH]cc2CN(C)CCNC)C1 (centres unmarked) [Compound 119]	101 to 1000	728	< 3000	77.3
CNCCN(C)Cc1c[nH]nc1[C@H]1CC[C@]2(CCOC2)CC1 [Compound 142]	< 100	15.9	< 3000	52
CCC(=O)N(CC1CCOCC1)[C@H]1CC[C@H](c2n[nH]cc2CN(C)CCNC)CC1 [Compound 109]	< 100	56	< 3000	2480
CNCCN(C)Cc1c[nH]nc1[C@H]1CC[C@]2(CCN(Cc3ccc(OCCOC)cc3)C2=O)CC1 [Compound 111]	< 100	59.9	< 3000	913
CNCCN(C)Cc1c[nH]nc1[C@H]1CC[C@H](OC2CCCCC2)CC1 [Compound 139]	101 to 1000	116	< 3000	627
CNCCN(C)Cc1c[nH]nc1[C@H]1CC[C@@H](COC)CC1 [Compound 166]	< 100	23	< 3000	83
CNCCN(C)Cc1c[nH]nc1C1CCC(OCCOc2ccccc2)CC1 (centres unmarked) [Compound 136]	< 100	6.8	< 3000	35
CNCCN(C)Cc1c[nH]nc1C1CCC(CC(C)C)CC1 (centres unmarked) [Compound 169]	< 100	10.2	< 3000	16
CCN1C(=O)N(C)CC12CCC(c1n[nH]cc1CN(C)CCNC)CC2 (centres unmarked) [Compound 162]	< 100	92.7	3010 to 12000	6680

Continued, in another order:

IC50 [1] [nM]	IC50 [1, 3] [nM]	Structure (SMILES)	EC30 [2, 4] [nM]	EC30 [2, 5] [nM]
< 100	32.3	CNCCN(C)Cc1c[nH]nc1C1CCC(O)C2(CCCC2)C1 (centres unmarked) [Compound 182, 9-[4-({methyl[2-(methylamino)ethyl]amino}methyl)-1H-pyrazol-3-yl]spiro[4.5]decan-6-ol]	< 3000	411
< 100	24.4	CNCCN(C)Cc1c[nH]nc1C1CCC(C)(C)C(O)C1 (centres unmarked) [Compound 185, 2,2-dimethyl-5-[4-({methyl[2-(methylamino)ethyl]amino}methyl)-1H-pyrazol-3-yl]cyclohexan-1-ol]	< 3000	453
< 100	29.6	CNCCN(C)Cc1c[nH]nc1C1CCC2(CC1)NC(=O)NC2=O (centres unmarked) [Compound 175]	> 12000	> 20000
< 100	20.5	CNCCN(C)Cc1c[nH]nc1C1CCC2(CCOCC2)CC1 [Compound 178]	< 3000	76
< 100	28.1	CCOC1CC2(CCC(c3n[nH]cc3CN(C)CCNC)CC2)CC1OCC (centres unmarked) [Compound 168]	< 3000	85
< 100	47.3	CNCCN(C)Cc1c[nH]nc1[C@H]1CC[C@H](O)C2(CCCCC2)C1 (racemic) [Compound 184, (1S,4S)-4-[4-({methyl[2-(methylamino)ethyl]amino}methyl)-1H-pyrazol-3-yl] spiro[5.5]undecan-1-ol]	< 3000	458
